Like-named read-outs stand apart in the source and are kept apart here.
Columns and labels:
A549 cells [1] = assay: in vitro; assay type: cell-based, human
Protocol: (§1) A549 cells (Korean Cell Line Bank), the human lung cancer tissue derived cell line, were cultured in 100 mm dish containing RPMI (Gibro-BRL, USA) supplemented with 10% FBS until the confluency reached 80%. […] The concentration of vehicle was up to 0.1% in every experiment.
(§2) MTT assay was performed with A549 cell line according to the method of Mossman, et al (J. Immunol. Methods, 65, 55-63, 1983).
(§3) 48 hours later, 5 mg/ml of MTT (3-4,5-dimethylthiazol-2,5-diphenyltetra zolium bromide) was added thereto, followed by culture at 37° C. for 3 hours. Then, the medium was discarded and the formed formazan crystal was dissolved in 500 μl of DMSO, which was aliquoted in 96-well plate. OD540 was measured.

[2] = test system: hsa-miR-590-5p (MIMAT0003258); assay: Micro RNA microarray, change of hsa-miR-590-5p expression; assay type: cell-based, human; details: for Change (Fold) hsa-miR-590-5p: A549, treated at IC20 for 48 hours, microarray, versus control
A549 cells [3] = assay: Micro RNA expression pattern by oligo microarray (Agilent Human miRNA array v16.0, 1347 human micro RNAs); assay type: cell-based; details: A549, treated at IC20 for 48 hours; for number of up-regulated micro RNAs out of 1347 / up-regulated micro RNA, share of 1347 micro RNAs: signal ratio to control higher than 1.5; for down-regulated micro RNA, share of 1347 micro RNAs / number of down-regulated micro RNAs out of 1347: signal ratio to control lower than 0.66
[4] = test system: hsa-miR-28-5p (MIMAT0000085); assay: Micro RNA microarray, change of hsa-miR-28-5p expression; assay type: cell-based, human; details: for Change (Fold) hsa-miR-28-5p: A549, treated at IC20 for 48 hours, microarray, versus control
in vitro = assay type: cell-based, human; details: human
Protocol: as §1, §2, §3

SMILES | IC20 (A549 cells [1]) [µM] | Change (Fold) hsa-miR-590-5p [2] [Fold] | expression level of hsa-miR-590-5p compared to the normal control group ([2]; result in words) | number of up-regulated micro RNAs out of 1347 (A549 cells [3]) | up-regulated micro RNA, share of 1347 micro RNAs (A549 cells [3]) [%] | down-regulated micro RNA, share of 1347 micro RNAs (A549 cells [3]) [%] | number of down-regulated micro RNAs out of 1347 (A549 cells [3]) | Change (Fold) hsa-miR-28-5p [4] [Fold] | expression level of hsa-miR-28-5p compared to the normal control group ([4]; result in words) | expression level of hsa-miR-590-5p compared to the normal control group [2] | expression level of hsa-miR-28-5p compared to the normal control group [4] | IC20 at 48 h (in vitro) [µM]
CCCC=O [butylaldehyde] | 4600 | 0.563 | down-regulated | 14 | 1.04 | 0.82 | 11 | 0.962 | – | – | – | –
CCCCCCC=O [heptanal] | – | 0.512 | down-regulated | 0 | 0.00 | 0.30 | 4 | 0.922 | down-regulated | – | – | –
CCCCCC=O [hexanal] | – | – | – | 5 | 0.37 | 0.07 | 1 | – | – | up-regulated | up-regulated | –
CCCCCCCCC=O [nonanal] | – | 0.966 | down-regulated | 6 | 0.45 | 0.00 | 0 | 1.569 | up-regulated | – | – | 440
CCCCCCCC=O [octanal] | – | 0.508 | down-regulated | one | 0.07 | 1.04 | 14 | 0.755 | down-regulated | – | – | –
CCC=O [propionaldehyde] | – | – | – | 13 | 0.97 | 0.15 | 2 | – | up-regulated | – | – | –
CCCCC=O [valeraldehyde] | – | 1.253 | up-regulated | 8 | 0.59 | 0.15 | 5 | 1.660 | up-regulated | – | – | –

— patent publication US8716192B2, “Micro RNAs for identification of exposure to lower aliphatic saturated aldehydes and the method of identification using thereof” (Korea Institute of Science and Technology, priority 2012, dated 2014)
